Three sequences from paper PMC11900122, “Study of Intracellular Peptides of the Central Nervous System of Zebrafish (Danio rerio) in a Parkinson’s Disease Model” (International Journal of Molecular Sciences, 2025) can be followed below.

The experiment has as its system Zebrafish (Danio rerio) larvae. In words: Behavioral assay in 6-OHDA zebrafish larvae model. Type of experiment: in vivo. The following applies: larvae 4 dpf, 750 µM 6-OHDA 24 h, then peptide 50 µM for 24 h; filmed 5 min, ToxTrac; 12 embryos per group. The method, then:
Wild-type adult D. rerio (zebrafish) were obtained from a licensed commercial distributor. They were maintained on a 14 h light–10 h dark photoperiod in fresh filtered water at 28 °C and fed twice a day with dry food and once a day with Artemia sp. Reproduction was performed in individual fish tanks in a 1 male–1 female proportion, with pebbles and artificial plants. Eggs were collected, selected and maintained in an incubator at 28 °C until 4 days post fertilization (dpf). This study followed the guidelines of the National Council for Animal Experimentation Control (CONCEA) and was approved by the Ethics Commission for Animal Use (CEUA) at the Bioscience Institute of São Paulo State University (São Vicente, Brazil: Protocol Number 06/2023, approved on 22 June 2023).
Zebrafish (Danio rerio) larvae at 4 dpf were transferred to a 96-well plate, a single larva per well. Larvae were treated with 750 µM 6-OHDA in system water for 24 h in an incubator at 28 °C. Then, solution was changed to system water with each peptide in different concentrations—10 µM, 20 µM, 30 µM, 40 µM and 50 µM [47]—and larvae were incubated at 28 °C for another 24 h. Finally, each larva was filmed for 5 min, and videos were processed by an automated tracking system (ToxTrac Version 2.96). Analysis parameters were mean speed (mm/s) and total distance swum (mm) (Figure 8). Statistical analysis was performed using a one-way analysis of variance (ANOVA) test followed by Dunnett’s test for multiple comparisons. Data were statistically analyzed using GraphPad Prism Software (GraphPad Software Inc., San Diego, CA, USA).
Figure 8 Zebrafish larva model. Zebrafish larvae were immersed in 6-OHDA 750 µM for 24 h, then in each peptide at 10 µM, 20 µM, 30 µM, 40 µM or 50 µM for 24 h. Videos were recorded for 5 min and then analyzed by software (ToxTrac Version 2.96). Parameters were mean speed and distance traveled.

Turning to GVGFATRQV [p-FABP7], the “Mean speed, compared to the control group” value is given as “statistically equal results to the control group” and the “Total distance swum, compared to the control group” value is “statistically equal results to the control group”.

With “TIEQEKQAGSS [p-Tbeta4, […], derived from thymosin beta-4]”, the “Mean speed, compared to the control group” value is given as “statistically equal results to the control group” and the “Total distance swum, compared to the control group” value is given as “statistically equal results to the control group”.

On to “TLDLNEMDYIQRGGPE [p-MRPS36, peptide derived from mitochondrial ribosomal protein S36]”, for which the “Mean speed, compared to the control group” value is “statistically equal results to the control group” and the “Total distance swum, compared to the control group” value was “statistically equal results to the control group”.
